Patent US20240400591A1 (Jacobio Pharmaceuticals Co., Ltd., priority 2021, published 2024)
Like-named read-outs stand apart in the source and are kept apart here.

Experiments:
NUGC4 (P53 WT) = assay: Cell viability assay (CellTiter-Glo, 6 days), NUGC4; assay type: cell-based; conditions: cell viability, 6 days, CellTiter-Glo, read-out: NUGC4 (P53 WT) IC50
Method: (§1) Cells were collected and counted. A desired number of cells was seeded into 96-well microplate and cultured in 37° C. cell incubator overnight. Compounds dissolved in cell culture medium were added into cell plate and cultured for 6 days. After balancing CellTiter-Glo reagent and cells at room temperature for 30 min, equal volume of CellTiter-Glo reagents was added to assay plate and shaken for 2 min for cell lysis. The cells were balanced at room temperature for 10 minutes and Luminescence signal was read using Envision. The percent of cell viability for compounds treated wells were normalized between High control and low control. Wells containing cell culture medium and same percentage DMSO sewved as Low control. Wells containing cells and same percentage DMSO sewved as High control. Cell viability (%)=(Luminescence readoutCompound treated−Luminescence readoutLow control)/(Luminescence readoutHigh control−Luminescence readoutLow control)*100%. Then the data were analyzed either by fitting a 4-parameter logistic model or by Excel to calculate IC50 values. And the IC50 was the concentration at 50% Cell viability on the curve.

[1] = biological target: T1, His-p53 Y220C (94-294) protein (Homo sapiens, UniProt P04637, Y220C); assay: In vitro DNA binding assay (HTRF); assay type: biochemical; conditions: % activation normalized to 2 μM Ref-1a high control
T1 construct: His-p53 Y220C (94-294) protein

NUGC3 (P53 Y220C) = assay: Cell viability assay (CellTiter-Glo, 6 days), NUGC3; assay type: cell-based; conditions: cell viability, 6 days, CellTiter-Glo, read-out: NUGC3 (P53 Y220C) IC50
Method: as §1

[2] = system: NUGC-3_P53_Luc single clonal cell line (p53 Y220C); assay: Reporter gene assay (p53 RE luciferase); assay type: cell-based; conditions: luciferase reporter, 6 hours, normalized to Ref-1a (10 μM) high control, read-out: p53(Y220C)_NUGC-3 EC50
Method: NUGC-3_P53_Luc single clonal cell line was established using pGL4.38[luc2P/p53 RE/Hygro] Vector (E365A, promega). NUGC-3_P53-Luc single clonal cells were cultured in 37° C. cell incubator before use. NUGC-3-P53-Luc cells were collected and washed twice with PBS to remove phenol red and then resuspended in medium to a proper concentration. Tested compound dilutions were transferred into 384 well assay plates (PerkinElmer). A desired number of cells was seeded into the assay plate and cultured for 6 hours at 37° C. cell incubator. Britelite plus Luciferase Assay Reagent were added into each well and the luminescence value was recorded on Envision. The percent of activity value of compounds treated wells was normalized between high control and low control. Wells containing cells and Ref-1a (10 μM) sewved as high control, and wells containing cells and same percentage of DMSO sewved as low control. Activity value (%)=(Luminescence readoutCompound treated−Luminescence readoutLow control)/(Luminescence readoutHigh control−Luminescence readoutLow control)*100%. Then the data were analyzed either by fitting a 4-parameter logistic model or by Excel to calculate EC50 values and the EC50 was the concentration at 50% Activity on the curve.

EC50 [1] [nM]	Compound	IC50 (NUGC4 (P53 WT)) [nM]	IC50 (NUGC3 (P53 Y220C)) [nM]	EC50 [2] [nM]	IC50 (NUGC4 (P53 WT); Homo sapiens, NUGC-4, 144 h) [nM]	IC50 (NUGC3 (P53 Y220C); Homo sapiens, NUGC-3, 144 h) [nM]	EC50 ([2]; Homo sapiens, NUGC-3) [nM]	EC50 ([2]; Homo sapiens, NUGC-3, 6 h) [nM]
55	COc1cc(P(C)(C)=O)c(F)cc1NCC#Cc1sc2c(NC3CCN(C)CC3F)cccc2c1CC(F)(F)F (stereo not drawn) [Example 52, (2-fluoro-4-((3-(7-(((Z)-3-fluoro-1-methylpiperidin-4-yl)amino)-3-(2,2,2-trifluoroethyl)benzo[b]thiophen-2-yl)prop-2-yn-1-yl)amino)-5-methoxyphenyl)dimethylphosphine oxide]	4580	750	230	–	–	–	–
113	CN1CC[C@@H](Nc2cccc3c(CC(F)(F)F)c(C#CCNc4ccc(P(C)(C)=O)c5c4OCCO5)sc23)[C@@H](F)C1 [Example 193, (8-((3-(7-(((3S,4R)-3-fluoro-1-methylpiperidin-4-yl)amino)-3-(2,2,2-trifluoroethyl)benzo[b]thiophen-2-yl)prop-2-yn-1-yl)amino)-2,3-dihydrobenzo[b][1,4]dioxin-5-yl)dimethylphosphine oxide]	–	–	–	18600	1220	130	–
27	CN1CC[C@@H](Nc2cccc3c(CC(F)(F)F)c(C#CCNc4ccc(P(C)(C)=O)cc4C(N)=O)sc23)[C@@H](F)C1 [Example 199, 5-(dimethylphosphoryl)-2-((3-(7-(((3S,4R)-3-fluoro-1-methylpiperidin-4-yl)amino)-3-(2,2,2-trifluoroethyl)benzo[b]thiophen-2-yl)prop-2-yn-1-yl)amino)benzamide]	–	–	–	49000	360	60	–
33	COc1c(NCC#Cc2sc3c(N[C@@H]4CCN(C)C[C@@H]4F)cccc3c2CC(F)(F)F)ccc(P(C)(C)=O)c1F [Example 194, (2-fluoro-4-((3-(7-(((3S,4R)-3-fluoro-1-methylpiperidin-4-yl)amino)-3-(2,2,2-trifluoroethyl)benzo[b]thiophen-2-yl)prop-2-yn-1-yl)amino)-3-methoxyphenyl)dimethylphosphine oxide]	–	–	–	12200	1750	150	–
15	[2H]C([2H])([2H])Oc1cc(P(C)(C)=O)ccc1NCC#Cc1sc2c(N[C@@H]3CCN(C)C[C@@H]3F)cccc2c1CC(F)(F)F [Example 174, (4-((3-(7-(((3S,4R)-3-fluoro-1-methylpiperidin-4-yl)amino)-3-(2,2,2-trifluoroethyl)benzo[b]thiophen-2-yl)prop-2-yn-1-yl)amino)-3-(methoxy-d3)phenyl)dimethylphosphine oxide]	–	–	–	5930	350	60	–
96	COc1cc(S(C)(=O)=O)ccc1NCC#Cc1cc2c(N[C@H]3CCN(C)C[C@H]3F)cccc2n1CC(F)(F)F [Ref-1b, N-((3R,4S)-3-fluoro-1-methylpiperidin-4-yl)-2-(3-((2-methoxy-4-(methylsulfonyl)phenyl)amino)prop-1-yn-1-yl)-1-(2,2,2-trifluoroethyl)-1H-indol-4-amine, reference compound]	–	–	–	12500	1920	200	–
19	CN1CCC(Nc2cccc3c(CC(F)(F)F)c(C#CCNc4ccc(P(C)(C)=O)c5c4OCC5)sc23)C(F)C1 (stereo not drawn) [Example 152, (7-((3-(7-(((Z)-3-fluoro-1-methylpiperidin-4-yl)amino)-3-(2,2,2-trifluoroethyl)benzo[b]thiophen-2-yl)prop-2-yn-1-yl)amino)-2,3-dihydrobenzofuran-4-yl)dimethylphosphine oxide]	6690	1020	120	–	–	–	–
58	CN1CC[C@@H](Nc2cccc3c(CC(F)(F)F)c(C#CCNc4ccc(P(C)(C)=O)cc4-c4ncon4)sc23)[C@@H](F)C1 [Example 213, (4-((3-(7-(((3S,4R)-3-fluoro-1-methylpiperidin-4-yl)amino)-3-(2,2,2-trifluoroethyl)benzo[b]thiophen-2-yl)prop-2-yn-1-yl)amino)-3-(1,2,4-oxadiazol-3-yl)phenyl)dimethylphosphine oxide]	–	–	–	9590	370	220	–
46	COc1cc(P2(=O)CCN(C(=O)C3CC3)CC2)ccc1NCC#Cc1sc2c(N[C@@H]3CCN(C)C[C@@H]3F)cccc2c1CC(F)(F)F [Example 149, cyclopropyl(4-(4-((3-(7-(((3S,4R)-3-fluoro-1-methylpiperidin-4-yl)amino)-3-(2,2,2-trifluoroethyl)benzo[b]thiophen-2-yl)prop-2-yn-1-yl)amino)-3-methoxyphenyl)-4-oxido-1,4-azaphosphinan-1-yl)methanone]	–	–	–	3700	370	90	–

Compound	EC50 [1] [nM]	IC50 (NUGC4 (P53 WT)) [nM]	IC50 (NUGC3 (P53 Y220C)) [nM]	EC50 [2] [nM]	IC50 (NUGC4 (P53 WT); Homo sapiens, NUGC-4, 144 h) [nM]	IC50 (NUGC3 (P53 Y220C); Homo sapiens, NUGC-3, 144 h) [nM]	EC50 ([2]; Homo sapiens, NUGC-3) [nM]	EC50 ([2]; Homo sapiens, NUGC-3, 6 h) [nM]
COc1cc(P(C)(C)=O)ccc1NCC#Cc1sc2c(N[C@H]3CCN(C)C[C@H]3F)cccc2c1CC(F)(F)F [Example 114, (4-((3-(7-(((3R,4S)-3-fluoro-1-methylpiperidin-4-yl)amino)-3-(2,2,2-trifluoroethyl)benzo[b]thiophen-2-yl)prop-2-yn-1-yl)amino)-3-methoxyphenyl)dimethylphosphine oxide]	57	–	–	–	10500	1240	–	120
COc1cc(P(C)(C)=O)ccc1NCC#Cc1sc2c(NC3CCN(C)CC3F)cccc2c1CC#N (racemic) [Example 107, 2-(2-(3-((4-(dimethylphosphoryl)-2-methoxyphenyl)amino)prop-1-yn-1-yl)-7-(((Z)-3-fluoro-1-methylpiperidin-4-yl)amino)benzo[b]thiophen-3-yl)acetonitrile]	60	–	–	–	20600	7250	960	–
CN1CC[C@@H](Nc2cccc3c(CC(F)(F)F)c(C#CCNc4ccc(P(C)(C)=O)cc4F)sc23)[C@@H](F)C1 [Example 84, (3-fluoro-4-((3-(7-(((3S,4R)-3-fluoro-1-methylpiperidin-4-yl)amino)-3-(2,2,2-trifluoroethyl)benzo[b]thiophen-2-yl)prop-2-yn-1-yl)amino)phenyl)dimethylphosphine oxide]	45	–	–	–	11500	1420	–	170
COc1cc(P(C)(C)=O)ccc1NCC#Cc1sc2c(N[C@@H]3CCN(C)C[C@@H]3Cl)cccc2c1CC(F)(F)F [Example 158, (3S,4R)-3-chloro-N-[2-[3-(4-dimethylphosphoryl-2-methoxy-anilino)prop-1-ynyl]-3-(2,2,2-trifluoroethyl)benzothiophen-7-yl]-1-methyl-piperidin-4-amine]	30	–	–	–	3950	370	–	90
CNC(=O)c1ccc(NCC#Cc2sc3c(N[C@@H]4CCN(C)C[C@@H]4F)cccc3c2CC(F)(F)F)c(OC)c1 [Example 113, 4-((3-(7-(((3S,4R)-3-fluoro-1-methylpiperidin-4-yl)amino)-3-(2,2,2-trifluoroethyl)benzo[b]thiophen-2-yl)prop-2-yn-1-yl)amino)-3-methoxy-N-methylbenzamide]	44	–	–	–	6100	930	–	70
COc1cc(P(=O)(C2CC2)C2CC2)ccc1NCC#Cc1sc2c(N[C@@H]3CCN(C)C[C@@H]3F)cccc2c1CC(F)(F)F [Example 141, dicyclopropyl(4-((3-(7-(((3S,4R)-3-fluoro-1-methylpiperidin-4-yl)amino)-3-(2,2,2-trifluoroethyl)benzo[b]thiophen-2-yl)prop-2-yn-1-yl)amino)-3-methoxyphenyl)phosphine oxide]	49	–	–	–	9060	1130	–	90
